We go through twelve compounds from PubChem BioAssay (NCI).

Test in all cases: inhibition of tumour cell growth, NCI panel, 48 h
Assay [1] relates to OVCAR-8 ovarian.
The subject of assay [2] is HOP-92 NSCLC.
In assay [3] the test system is K-562 leukemia.
The subject of assay [4] is KM12 colon.
For assay [5], the system named is OVCAR-5 ovarian.
Assay [6] relates to SNB-75 CNS.
Assay [7] has as its system CAKI-1 renal.
The subject of assay [8] is 786-0 renal.
Assay [9] has as its system PC-3 prostate.
Assay [10] concerns BT-549 breast.
The subject of assay [11] is HS 578T breast.

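In this assay, cells in 96-well plates receive the compound at five concentrations for 48 hours. Endpoints are linearly interpolated between the surrounding concentrations. At the GI50, growth is halved. TGI denotes the concentration required for complete inhibition of growth.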

As to `CC1C(=O)C(C)C(c2ccco2)N(N=O)C1c1ccco1` (centres undefined), the TGI in assay [1], in assay [2], in assay [3], in assay [4], in [5] and in assay [6] was greater than 100 µM in each case. This compound also gave a TGI in [7] greater than 100 µM.

For the compound `C[n+]1c2ccccc2c(CNC(CS)C(=O)O)c2ccccc21` (centres undefined), the TGI was 75 µM in [1]; greater than 100 µM in [8]; 52 µM in [2]; greater than 100 µM in [3]; 57.5 µM in assay [4]; greater than 100 µM in [5]. For the same compound, the TGI was determined as 47.7 µM in assay [6] and 70.5 µM in assay [7].

For the compound `CC1(O)COCCCCOc2c(CN)cccc2NC(=O)c2nc(cnc2N)-c2ccc(cc2)S(=O)(=O)C(C)(C)C1` (centres undefined), the GI50 is 1.31 µM in assay [1]; 1.31 µM in assay [2]; 1.43 µM in assay [4]; 1.18 µM in [9]; 2.04 µM in [5]; 1.45 µM in [10]. Besides, the GI50 was 0.17 µM in [6] and 1.22 µM in [7]. Besides, the TGI in assay [1] amounted to 3.63 µM; in [2], 2.74 µM; in assay [4], 2.93 µM; in [9], 2.54 µM; in [5], 3.56 µM; in assay [10], 2.91 µM. Besides, the TGI is 1.94 µM in assay [6] and 2.53 µM in assay [7].

Turning to `O=C(NC(Cc1ccc(I)cc1)C(=O)O)c1ccc(Cl)cc1` (centres undefined), the TGI in [1], in assay [2], in [3], in assay [4], in [5] and in [6] was greater than 100 µM in each case. In assay [7], this compound showed a TGI greater than 100 µM.

For `CS(=O)(=O)OCCN(CCOS(C)(=O)=O)c1ccc(/C=N/Nc2ncnc3nc[nH]c23)cc1`, the TGI in assay [1] is 57.7 µM; in assay [8] it was 45.5 µM; in assay [2], 63.5 µM; in assay [3] it was greater than 100 µM; in assay [4], 34.8 µM; in assay [5], 51.4 µM. In addition, the TGI in assay [6] was 33.6 µM; in [7], 32.5 µM.

For `N=C(N)SCc1cccc([N+](=O)[O-])c1`, the TGI in assay [1] is greater than 67 µM; in assay [2], 60.9 µM; in assay [3] it was greater than 62.3 µM; in assay [4], greater than 31.6 µM; in assay [5], greater than 100 µM; in assay [6], 89 µM. In assay [7], the TGI stood at 74.1 µM.

Take `CCSc1nc(-c2cccs2)nc2ccc(I)cc12`: the TGI in assay [1], in [8], in [3], in [4], in assay [9] and in assay [5] was greater than 100 µM in each case. In addition, the TGI in [10], in assay [6] and in [7] was greater than 100 µM in each case.

Consider `CNC(C)Cc1ccccc1OC` (centres undefined), for which the TGI in [1], in assay [8], in assay [2], in assay [3], in [4] and in assay [5] was greater than 100 µM throughout. Moreover, the TGI in assay [6] and in assay [7] was greater than 100 µM each time.

Take `CCCCCCCN(CCCCCCC)CC(O)c1cc2ccccc2c2cc(Br)ccc12` (centres undefined): the TGI was greater than 100 µM in assay [1]; greater than 100 µM in [8]; 77 µM in assay [2]; greater than 100 µM in assay [3]; greater than 100 µM in [9]; greater than 100 µM in assay [5]. Besides, the figures for the TGI in [6] and in assay [7] were 93.9 µM and greater than 100 µM, respectively.

As to `O=C1OC2(OC2c2ccc(Cl)cc2)c2ccccc21` (centres undefined), the TGI in [1], in assay [2], in assay [3], in assay [4], in assay [5] and in [6] was greater than 100 µM in each case. In assay [7], this compound displayed a TGI greater than 100 µM.

In the case of `CCc1ccc2c(c1)C(=O)c1c-2n(CCCN)c(=O)c2cc([N+](=O)[O-])ccc12`, the GI50 in [1] is 1.02 µM; in [2] it was 2.34 µM; in assay [3] it was 0.243 µM; in assay [4] it was 1.02 µM; in assay [5], 2.07 µM; in [10] it was 1.68 µM. In addition, in assay [7], the GI50 was 1.55 µM. In addition, the TGI in assay [1] was determined as 2.35 µM; in [2], 4.06 µM; in assay [3], 0.756 µM; in [4], 2.43 µM; in assay [5] it was 3.59 µM; in [10], 3.29 µM. The compound further yielded a TGI in assay [7] of 3.11 µM.

As to `CCO[C@]12CCC[C@H]1[C@@H]1C(=O)c3ccccc3C(=O)C1=C(C)O2`, the TGI is greater than 100 µM in assay [1]; greater than 100 µM in assay [8]; greater than 100 µM in [2]; 94.7 µM in [3]; greater than 100 µM in assay [11]; greater than 100 µM in assay [4]. Further, the TGI in assay [9], in assay [5], in [6] and in [7] was greater than 100 µM each time.
